Laboratory results reported in the NIST ThermoML archive (doi:10.1016/j.fluid.2007.05.029).

Tests used:
[1] = xn = mol fraction of the nth substance listed

OCCCCCCO [1,6-hexanediol] + O
surface tension liquid-gas [mN/m], [1]
Conditions | 283.15 K | 288.15 K | 293.15 K | 298.15 K | 303.15 K | 308.15 K
x1 = 0.0013 | 63.8 | 63.1 | 62.3 | 62 | 61.1 | 60.6
x1 = 0.0017 | 62.5 | 61.8 | 61.2 | 60.4 | 59.7 | 58.8
x1 = 0.0021 | 61.5 | 60.7 | 60.3 | 59.4 | 58.5 | 57.6
x1 = 0.0029 | 60 | 59.2 | 58.6 | 57.5 | 56.8 | 56
x1 = 0.0057 | 56.9 | 55.7 | 55 | 53.8 | 53.3 | 52.4
x1 = 0.007 | 55.1 | 54.3 | 53.4 | 52.1 | 51.7 | 50.9
x1 = 0.0089 | 53.3 | 52.4 | 51.4 | 50.2 | 50 | 49.4
x1 = 0.014 | 50.6 | 49.4 | 49.1 | 48.3 | 48.3 | 47.2
x1 = 0.0159 | 49.4 | 48.6 | 48 | 47.5 | 47 | 46.6
x1 = 0.0237 | 48.5 | 47.6 | 47 | 46.5 | 46.1 | 45.8
x1 = 0.0373 | 46.1 | 45.7 | 45.4 | 45 | 44.5 | 44.2
x1 = 0.0463 | 44.4 | 44.1 | 43.9 | 43.6 | 43.3 | 43
x1 = 0.0545 | 43.7 | 43.4 | 43.2 | 42.9 | 42.5 | 42.2
x1 = 0.0742 | 43.5 | 43.3 | 43 | 42.8 | 42.4 | 42.1
x1 = 0.098 | 43.4 | 43.1 | 42.9 | 42.7 | 42.4 | 42.1
x1 = 0.1165 | 43.4 | 43.1 | 42.8 | 42.6 | 42.3 | 42

CC(O)CCC(C)O (stereo not drawn) [2,5-hexanediol]
Conditions | surface tension liquid-gas [mN/m]
283.15 K | 32.3
288.15 K | 32
293.15 K | 31.9
298.15 K | 31.6
303.15 K | 31.3
308.15 K | 31

CC(O)CCC(C)O (stereo not drawn) [2,5-hexanediol] + O
surface tension liquid-gas [mN/m], [1]
Conditions | 283.15 K | 288.15 K | 293.15 K | 298.15 K | 303.15 K | 308.15 K
x1 = 0.001 | 68.5 | 67.9 | 67.7 | 67.2 | 66.6 | 65.9
x1 = 0.0027 | 60.2 | 59.6 | 59.1 | 58.6 | 57.9 | 57.3
x1 = 0.0037 | 56.9 | 56.3 | 55.6 | 55.2 | 54.7 | 54.2
x1 = 0.0068 | 53.5 | 52.9 | 52.3 | 51.6 | 51.2 | 50.7
x1 = 0.0088 | 51.6 | 51 | 50.3 | 49.5 | 48.6 | 48
x1 = 0.0103 | 50 | 49.4 | 49.2 | 48.7 | 48.2 | 47.8
x1 = 0.0135 | 47.9 | 47.5 | 47.2 | 46.8 | 46.3 | 45.8
x1 = 0.0168 | 46.1 | 45.7 | 45.5 | 45.2 | 44.9 | 44.6
x1 = 0.0263 | 43.4 | 43.2 | 42.7 | 42.1 | 41.6 | 41.3
x1 = 0.037 | 41.5 | 41.1 | 40.4 | 40 | 39.7 | 39.2
x1 = 0.0462 | 40.4 | 40.1 | 39.7 | 39 | 38.7 | 38.2
x1 = 0.063 | 39.1 | 38.6 | 38.1 | 37.4 | 37.1 | 36.6
x1 = 0.0808 | 38.5 | 38 | 37.5 | 37 | 36.5 | 36.2
x1 = 0.096 | 38.3 | 37.8 | 37.3 | 36.8 | 36.3 | 36
x1 = 0.1117 | 37.7 | 37.2 | 36.9 | 36.2 | 35.9 | 35.6
x1 = 1 | 32.3 | 32 | 31.9 | 31.6 | 31.3 | 31

O [water]
Conditions | surface tension liquid-gas [mN/m]
283.15 K | 74.1
288.15 K | 73.4
293.15 K | 72.6
298.15 K | 71.8
303.15 K | 71
308.15 K | 70.2

O [water] + CC(O)CCC(C)O
[1], x2 = 0
Conditions | surface tension liquid-gas [mN/m]
283.15 K | 74.1
288.15 K | 73.4
293.15 K | 72.6
298.15 K | 71.8
303.15 K | 71
308.15 K | 70.2

O [water] + CC(O)CCCCO
[1], x2 = 0
Conditions | surface tension liquid-gas [mN/m]
283.15 K | 74.1
288.15 K | 73.4
293.15 K | 72.6
298.15 K | 71.8
303.15 K | 71
308.15 K | 70.2

O [water] + CCCCC(O)CO
[1], x2 = 0
Conditions | surface tension liquid-gas [mN/m]
283.15 K | 74.1
288.15 K | 73.4
293.15 K | 72.6
298.15 K | 71.8
303.15 K | 71
308.15 K | 70.2

O [water] + OCCCCCCO
[1], x2 = 0
Conditions | surface tension liquid-gas [mN/m]
283.15 K | 74.1
288.15 K | 73.4
293.15 K | 72.6
298.15 K | 71.8
303.15 K | 71
308.15 K | 70.2
